Experimental data as given in patent publication US9447038B2 (SANOFI, priority 2012, dated 2016).
pIC50: −log10 of the molar value. Counter-ions that a name gives are not always drawn.

These compounds were tested against human CXCR3-A receptor (Homo sapiens (Human), UniProt P49682) (assay: 125I-CXCL10 competition radioligand binding assay). Conditions: not given.
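Further: One-hour incubation of membranes with tracer, bound radioligand separated by glass fibre filtration, IC50 derived from four-parameter nonlinear fit of competition curves.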

Sequence of human CXCR3-A receptor (P49682 whole entry): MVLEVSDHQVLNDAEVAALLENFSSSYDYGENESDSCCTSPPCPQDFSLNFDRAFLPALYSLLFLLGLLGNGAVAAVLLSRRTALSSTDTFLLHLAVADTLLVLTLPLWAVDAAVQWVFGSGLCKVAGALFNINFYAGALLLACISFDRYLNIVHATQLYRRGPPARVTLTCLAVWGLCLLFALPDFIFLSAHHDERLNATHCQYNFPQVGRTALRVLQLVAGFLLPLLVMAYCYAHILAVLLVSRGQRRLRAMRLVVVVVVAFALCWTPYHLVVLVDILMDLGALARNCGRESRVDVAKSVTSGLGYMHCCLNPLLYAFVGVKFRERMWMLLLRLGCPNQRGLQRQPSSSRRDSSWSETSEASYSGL

pIC50	Compound
7.35	CCCCN(Cc1ccc(OCCN2C(=O)CCC2=O)c(OC)c1)C(CC(=O)O)c1ccc(Cl)cc1 (stereo not drawn) [Example 38, 3-(Butyl-{4-[2-(2,5-dioxo-pyrrolidin-1-yl)-ethoxy]-3-methoxy-benzyl}-amino)-3-(4-chloro-phenyl)-propionic acid]

Same assay, conditions: displacement of 125I-CXCL10 from membranes of CHO cells expressing human recombinant CXCR3-A

pIC50	Compound
6.92	COc1cc(CN(CC2CCCC2)C(CC(=O)O)c2ccc(Cl)cc2Cl)ccc1OCCN1C(=O)CCC1=O (stereo not drawn) [Example 3, 3-(Cyclopentylmethyl-{4-[2-(2,5-dioxo-pyrrolidin-1-yl)-ethoxy]-3-methoxy-benzyl}-amino)-3-(2,4-dichloro-phenyl)-propionic acid]
7.18	CC(C)CN(Cc1ccc(OCCN2C(=O)CCC2=O)c(F)c1)[C@@H](CC(=O)O)c1ccc(Cl)c(F)c1 [Example 21, (S)-3-(4-Chloro-3-fluoro-phenyl)-3-({4-[2-(2,5-dioxo-pyrrolidin-1-yl)-ethoxy]-3-fluoro-benzyl}-isobutyl-amino)-propionic acid; hydrochloride]
6.27	CC(C)CN(Cc1ccc(OCCN2C(=O)CCC2=O)c(F)c1)[C@H](CC(=O)O)c1ccc(Cl)c(F)c1 [Example 22, (R)-3-(4-Chloro-3-fluoro-phenyl)-3-({4-[2-(2,5-dioxo-pyrrolidin-1-yl)-ethoxy]-3-fluoro-benzyl}-isobutyl-amino)-propionic acid; hydrochloride]
7.41	Cc1cc(CN(CC2CC2)[C@@H](CC(=O)O)c2ccc(Cl)c(Cl)c2)ccc1OCCN1C(=O)CCC1=O [Example 26, (S)-3-(Cyclopropylmethyl-{4-[2-(2,5-dioxo-pyrrolidin-1-yl)-ethoxy]-3-methyl-benzyl}-amino)-3-(3,4-dichloro-phenyl)-propionic acid]
7.07	Cc1cc(CN(CC2CC2)[C@H](CC(=O)O)c2ccc(Cl)c(Cl)c2)ccc1OCCN1C(=O)CCC1=O [Example 27, (R)-3-(Cyclopropylmethyl-{4-[2-(2,5-dioxo-pyrrolidin-1-yl)-ethoxy]-3-methyl-benzyl}-amino)-3-(3,4-dichloro-phenyl)-propionic acid]
7.26	Cc1cc(CN(CC2CCCCC2)[C@@H](CC(=O)O)c2ccc(Cl)cc2)ccc1OCCN1C(=O)CN(C)C1=O [Example 30, (S)-3-(4-Chloro-phenyl)-3-(cyclohexylmethyl-{3-methyl-4-[2-(3-methyl-2,5-dioxo-imidazolidin-1-yl)-ethoxy]-benzyl}-amino)-propionic acid]
6.38	Cc1cc(CN(CC2CCCCC2)[C@H](CC(=O)O)c2ccc(Cl)cc2)ccc1OCCN1C(=O)CN(C)C1=O [Example 31, (R)-3-(4-Chloro-phenyl)-3-(cyclohexylmethyl-{3-methyl-4-[2-(3-methyl-2,5-dioxo-imidazolidin-1-yl)-ethoxy]-benzyl}-amino)-propionic acid]
7.16	Cc1cc(CN(CC2CCCC2)[C@@H](CC(=O)O)c2ccc(Cl)c(F)c2)ccc1OCCN1C(=O)CN(C)C1=O [Example 32, (S)-3-(4-Chloro-3-fluoro-phenyl)-3-(cyclopentylmethyl-{3-methyl-4-[2-(3-methyl-2,5-dioxo-imidazolidin-1-yl)-ethoxy]-benzyl}-amino)-propionic acid]
7.07	Cc1cc(CN(CC2CCCC2)[C@H](CC(=O)O)c2ccc(Cl)c(F)c2)ccc1OCCN1C(=O)CN(C)C1=O [Example 33, (R)-3-(4-Chloro-3-fluoro-phenyl)-3-(cyclopentylmethyl-{3-methyl-4-[2-(3-methyl-2,5-dioxo-imidazolidin-1-yl)-ethoxy]-benzyl}-amino)-propionic acid]
7.08	Cc1cc(CN(CC2CCCCC2)[C@@H](CC(=O)O)c2ccc(Cl)c(F)c2)ccc1OCCN1C(=O)CN(C)C1=O [Example 34, (S)-3-(4-Chloro-3-fluoro-phenyl)-3-(cyclohexylmethyl-{3-methyl-4-[2-(3-methyl-2,5-dioxo-imidazolidin-1-yl)-ethoxy]-benzyl}-amino)-propionic acid]
7.12	Cc1cc(CN(CC2CCCCC2)[C@H](CC(=O)O)c2ccc(Cl)c(F)c2)ccc1OCCN1C(=O)CN(C)C1=O [Example 35, (R)-3-(4-Chloro-3-fluoro-phenyl)-3-(cyclohexylmethyl-{3-methyl-4-[2-(3-methyl-2,5-dioxo-imidazolidin-1-yl)-ethoxy]-benzyl}-amino)-propionic acid]
7.70	COc1cc(CN(CC2CC2)C(CC(=O)O)c2ccc(Cl)cc2)ccc1OCCN1C(=O)CCC1=O (stereo not drawn) [Example 36, 3-(4-Chloro-phenyl)-3-(cyclopropylmethyl-{4-[2-(2,5-dioxo-pyrrolidin-1-yl)-ethoxy]-3-methoxy-benzyl}-amino)-propionic acid]
7.70	CCCN(Cc1ccc(OCCN2C(=O)CCC2=O)c(OC)c1)C(CC(=O)O)c1ccc(Cl)cc1 (stereo not drawn) [Example 37, 3-(4-Chloro-phenyl)-3-({4-[2-(2,5-dioxo-pyrrolidin-1-yl)-ethoxy]-3-methoxy-benzyl}-propyl-amino)-propionic acid]
7.15	COc1cc(CN(CC2CCCC2)C(CC(=O)O)c2ccc(Cl)cc2)ccc1OCCN1C(=O)CCC1=O (stereo not drawn) [Example 39, 3-(4-Chloro-phenyl)-3-(cyclopentylmethyl-{4-[2-(2,5-dioxo-pyrrolidin-1-yl)-ethoxy]-3-methoxy-benzyl}-amino)-propionic acid]
7.40	COc1cc(CN(CC2CCCCC2)C(CC(=O)O)c2ccc(Cl)cc2)ccc1OCCN1C(=O)CCC1=O (stereo not drawn) [Example 40, 3-(4-Chloro-phenyl)-3-(cyclohexylmethyl-{4-[2-(2,5-dioxo-pyrrolidin-1-yl)-ethoxy]-3-methoxy-benzyl}-amino)-propionic acid]
6.97	CCCN(Cc1ccc(OCCN2C(=O)CCC2=O)c(OC)c1)C(CC(=O)O)c1ccc(Cl)c(F)c1 (stereo not drawn) [Example 41, 3-(4-Chloro-3-fluoro-phenyl)-3-({4-[2-(2,5-dioxo-pyrrolidin-1-yl)-ethoxy]-3-methoxy-benzyl}-propyl-amino)-propionic acid]
7.64	CCCCN(Cc1ccc(OCCN2C(=O)CCC2=O)c(OC)c1)C(CC(=O)O)c1ccc(Cl)c(F)c1 (stereo not drawn) [Example 43, 3-(Butyl-{4-[2-(2,5-dioxo-pyrrolidin-1-yl)-ethoxy]-3-methoxy-benzyl}-amino)-3-(4-chloro-3-fluoro-phenyl)-propionic acid]
7.37	COc1cc(CN(CC2CCCCC2)C(CC(=O)O)c2ccc(Cl)c(F)c2)ccc1OCCN1C(=O)CCC1=O (stereo not drawn) [Example 44, 3-(4-Chloro-3-fluoro-phenyl)-3-(cyclohexylmethyl-{4-[2-(2,5-dioxo-pyrrolidin-1-yl)-ethoxy]-3-methoxy-benzyl}-amino)-propionic acid]
7.18	COc1cc(CN(CC2CC2)C(CC(=O)O)c2ccc(Cl)c(Cl)c2)ccc1OCCN1C(=O)CCC1=O (stereo not drawn) [Example 45, 3-(Cyclopropylmethyl-{4-[2-(2,5-dioxo-pyrrolidin-1-yl)-ethoxy]-3-methoxy-benzyl}-amino)-3-(3,4-dichloro-phenyl)-propionic acid]
6.93	CCCN(Cc1ccc(OCCN2C(=O)CCC2=O)c(OC)c1)C(CC(=O)O)c1ccc(Cl)c(Cl)c1 (stereo not drawn) [Example 46, 3-(3,4-Dichloro-phenyl)-3-({4-[2-(2,5-dioxo-pyrrolidin-1-yl)-ethoxy]-3-methoxy-benzyl}-propyl-amino)-propionic acid]
7.21	CCCCN(Cc1ccc(OCCN2C(=O)CCC2=O)c(OC)c1)C(CC(=O)O)c1ccc(Cl)c(Cl)c1 (stereo not drawn) [Example 48, 3-(Butyl-{4-[2-(2,5-dioxo-pyrrolidin-1-yl)-ethoxy]-3-methoxy-benzyl}-amino)-3-(3,4-dichloro-phenyl)-propionic acid]
7.21	COc1cc(CN(CC2CCCC2)C(CC(=O)O)c2ccc(Cl)c(Cl)c2)ccc1OCCN1C(=O)CCC1=O (stereo not drawn) [Example 49, 3-(Cyclopentylmethyl-{4-[2-(2,5-dioxo-pyrrolidin-1-yl)-ethoxy]-3-methoxy-benzyl}-amino)-3-(3,4-dichloro-phenyl)-propionic acid]
7.01	COc1cc(CN(CC2CCCCC2)C(CC(=O)O)c2ccc(Cl)c(Cl)c2)ccc1OCCN1C(=O)CCC1=O (stereo not drawn) [Example 50, 3-(Cyclohexylmethyl-{4-[2-(2,5-dioxo-pyrrolidin-1-yl)-ethoxy]-3-methoxy-benzyl}-amino)-3-(3,4-dichloro-phenyl)-propionic acid]
6.88	O=C(O)CC(c1ccc(Cl)cc1)N(Cc1ccc(OCCN2C(=O)CCC2=O)c(F)c1)CC1CC1 (stereo not drawn) [Example 51, 3-(4-Chloro-phenyl)-3-(cyclopropylmethyl-{4-[2-(2,5-dioxo-pyrrolidin-1-yl)-ethoxy]-3-fluoro-benzyl}-amino)-propionic acid]
6.00	CCCN(Cc1ccc(OCCN2C(=O)CCC2=O)c(F)c1)[C@H](CC(=O)O)c1ccc(Cl)cc1 [Example 52, (R)-3-(4-Chloro-phenyl)-3-({4-[2-(2,5-dioxo-pyrrolidin-1-yl)-ethoxy]-3-fluoro-benzyl}-propyl-amino)-propionic acid]
6.90	CC(C)CN(Cc1ccc(OCCN2C(=O)CCC2=O)c(F)c1)C(CC(=O)O)c1ccc(Cl)cc1 (stereo not drawn) [Example 53, 3-(4-Chloro-phenyl)-3-({4-[2-(2,5-dioxo-pyrrolidin-1-yl)-ethoxy]-3-fluoro-benzyl}-isobutyl-amino)-propionic acid]
6.51	CCCCN(Cc1ccc(OCCN2C(=O)CCC2=O)c(F)c1)C(CC(=O)O)c1ccc(Cl)cc1 (stereo not drawn) [Example 54, 3-(Butyl-{4-[2-(2,5-dioxo-pyrrolidin-1-yl)-ethoxy]-3-fluoro-benzyl}-amino)-3-(4-chloro-phenyl)-propionic acid]
6.53	O=C(O)C[C@H](c1ccc(Cl)cc1)N(Cc1ccc(OCCN2C(=O)CCC2=O)c(F)c1)CC1CCC1 [Example 55, (R)-3-(4-Chloro-phenyl)-3-(cyclobutylmethyl-{4-[2-(2,5-dioxo-pyrrolidin-1-yl)-ethoxy]-3-fluoro-benzyl}-amino)-propionic acid]
7.28	O=C(O)CC(c1ccc(Cl)cc1)N(Cc1ccc(OCCN2C(=O)CCC2=O)c(F)c1)CC1CCCC1 (stereo not drawn) [Example 56, 3-(4-Chloro-phenyl)-3-(cyclopentylmethyl-{4-[2-(2,5-dioxo-pyrrolidin-1-yl)-ethoxy]-3-fluoro-benzyl}-amino)-propionic acid]
